Results reported in patent US20230048901A1, “SOLID ORAL FORMULATION OF UTIDELONE” (Beijing Biostar Pharmaceuticals Co., Ltd., priority 2020, published 2023).

Assay: Solubility of Utidelone in water and organic solvents
Format: physicochemical
Description: The saturated solubility in water is less than 1 μg/ml, so it is difficult to develop into an oral formulation with suitable bioavailability. At present, the marketed epothilone antitumor drugs such as Utidelone injection and Ixabepilone injection etc., all of which use non-aqueous solvents such as ethanol and polyoxyl castor oil as solvents, are diluted with sodium chloride injection for administration by intravenous infusion. Since polyoxyl castor oil is a strong allergenic substance, antiallergic treatment must be given before intravenous administration, which reduces the compliance of this type of drug in clinical use, increases the adverse reactions of patients, and limits its clinical application.

C/C1=C/CC(/C(C)=C/c2csc(C)n2)OC(=O)C[C@H](O)C(C)(C)C(=O)[C@H](C)[C@@H](O)[C@@H](C)CCC1 (stereo partly drawn) [Utidelone, 4,8-dihydroxy-5,5,7,9,13-pentamethyl-16-[1-methyl-2-(2-methyl-thiazole-4-yl)-vinyl]-hexadecoxetane-13-en-2,6-one lactone]
solubility in organic solvents (ethanol, methanol, ethyl acetate, chloroform): easily soluble | solubility in water (water): insoluble in water | solubility (water, read-out: saturated solubility in water): < 1 µg/mL
